The record followed here is patent US5308763A, “Method of making primary culture of olfactory neurons” (The Johns Hopkins University, priority 1992, dated 1994).

“Also recorded” adds a separate entry of the source. Like-named read-outs stand apart in the source and are kept apart here.

In assay [1] the test system is Primary olfactory neurons. Nature of the assay: Effect of odorant on cyclic AMP levels in primary olfactory neuron cultures (RIA). It is filed as cell-based, rat. The conditions noted are these: for activity at 10 µM: Rattus norvegicus, Neuron, 10 uM IBMP, ± SEM, read-out: cAMP. As to the method: (§1) After 5-7 days in primary culture, olfactory neuronal cells were exposed to odorants and cyclic AMP levels assayed. To avoid transient changes in intracellular cyclic AMP levels caused by feeding, the medium was changed to 0.5 ml of MEM-AIR containing 0.1% (w/v) RIA-grade BSA 2-3 hr before use. At zero-time, cultures received an additional 0.5 ml of MEM-AIR with or without 10 uM 2-isobutyl-3-methoxypyrazine (IBMP). At various times thereafter the entire medium was aspirated and the reaction quenched by addition of 6% in cold TCA. Cellular extracts were processed and RIA for cyclic AMP was performed as described below.
(§2) Primary cultures of olfactory neurons were plated in laminin-treated 24-well cluster dishes at a density of 1×10^6 cells per cm^2. Cells were used between days 5-7 in culture. Thirty min before experimentation, monolayers were fed wtih MEM-AIR containing 0.1% (w/v) RIA grade BSA. Immediately prior to use, odorants were diluted from a 50 mM stock in absolute ethanol to 10 uM. At zero time, 0.5 ml of MEM-AIR containing 0.1% RIA grade BSA and odorant at twice the final concentration was added to wells.
(§3) The experiment was terminated by aspiration of culture medium and addition of 200 ul of 6% (w/v) trichloroacetic acid (TCA) at 0° C. Culture wells were heated to 56° C. in an oven for 1 hr, scraped, sonicated, chilled, and microfuged for 30 sec. The supernatants were extracted 4 times with 5 volumes of ether, and the ether-extracted water phase was lyophilized to dryness. Samples were resuspended in 200 ul of RIA-NEN buffer (NEN/DuPont, Boston, Mass.) and RIA assay was performed according to specifications of the cyclic AMP kit.

Assay [2] deals with NG-108 cells. Nature of the assay: Effect of odorant on cyclic AMP levels in NG-108 cells (RIA). The conditions noted are these: for activity at 10 µM: 10 uM IBMP, ± SEM, read-out: cAMP. It is filed as cell-based. As to the method: as §1, §2, §3
1 NG-108 cells (a generous gift from Dr. Karen Braas, University of Vermont, Burlington, Vt.) were grown and maintained as previously described (Braas, Childers and U'Prichard, 1983). For experimentation, cells were plated in 24-well clustered dishes and treated similarly to olfactory neurons. NG-108 cells are hybrid cells of a globlastoma and a non-olfactory neural-like cell. NG-108 is a continuous cell line.

The test system of assay [3] is adenylyl cyclase. Nature of the assay: Adenylyl cyclase augmentation in olfactory neuronal cultures by odorants. It is filed as cell-based. The source says: The cells of the olfactory epithelium from which the neuronal cells have been purified are mainly the sustentacular cells and the basal cells. These cells can be distinguished on the basis of morphology, marker proteins, and lack of excitability.

Assay [4] relates to olfactory neurons. Put plainly: Evaluation of substrate matrix substances for plating efficiency and morphology of olfactory neurons. The conditions noted are these: for plating efficiency (in words) / process / neurite outgrowth (in words): culture surface coated with the substance. It is filed as cell-based, rat. As to the method: Two chamber slides were pretreated in a number of ways, For laminin coating, 1 ml of MDV containing 25 ug/ml laminin was plated onto glass two-chamber slides overnight at 37° C.; before use, the slides were rinsed with MDV. For fibronectin, slides were treated with a solution containing 1 ml of MDV containing 20 ug/ml fibronectin (Collaborative Research), incubated overnight at 37° C. and rinsed with MDV prior to use. For polyornithine (PORN, Sigma Chemicals), a solution of a concentration of 1 mg/ml PORN in deionized distilled water was added to slides, incubated 1 hr at 37° C., rinsed twice with deionized distilled water, and rinsed once with MDV prior to use. When laminin was used on PORN-treated slides, slides were treated with PORN and then laminin in the usual manner. Coating of slides with poly-D-lysine was performed analogous to treatment with polyornithine. Heparan sulfate was diluted in MDV to a concentration of 10 ug/ml and 1 ml was placed on a slide, maintained overnight at 37° C., and rinsed with deionized distilled water prior to use. Collagen (Gibco) or collage IV (Collaborative Research) was prepared as a 50 ug/ml solution in deionized distilled water and 1 ml of this solution utilized per slide. In the case of collagen, the solution was allowed to air dry. Collage IV was maintained overnight at room temperature, aspirated, air dried and then rinsed twice with deionized distilled water prior to use. When laminin was used with collagen IV, collage IV was prepared as described, and laminin was subsequently added in the usual manner. Matrigel (Collaborative Research) was utilized according to manufacturer's instructions.
Primary cultures were prepared as described above and plated onto a number of different substrates and examined by phase contrast as well as immunofluorescence with antivimentin antisera (FIG. 6).
Matrigel was also examined as a substrate (FIG. 7).

Assay [5] concerns olfactory neurons. Put plainly: Effect of NGF on olfactory neuronal survival and neurite extension. It is filed as cell-based, rat.
Where [6] appears, read: read-out: concentration eliciting comparable levels of excitation (50% of maximal adenylyl cyclase augmentation).

For the molecule `COc1nccnc1CC(C)C` [IBMP, 2-isobutyl-3-methoxypyrazine], the activity at 10 µM in assay [1] (0.5 min) came out at 350 ± 160%; in assay [1] (1 min) it was 250 ± 92%; in assay [1] (5 min) it was 270 ± 113%; in assay [1] (0.25 h, time 15 min), 175 ± 47%; in assay [2] (NG-108, 0.5 min, time 0.5 min) it was 103 ± 19%; in assay [2] (NG-108, 1 min, time 1.0 min), 94 ± 32%. The activity at 10 µM in assay [2] (NG-108, 5 min, time 5.0 min) was 99 ± 16%; in assay [2] (NG-108, 0.25 h, time 15 min), 70 ± 41%. Further, the “maximum increase in intracellular cyclic AMP over control levels” value in assay [1] (olfactory neurons) is reported as “approximately three”. Moreover, in assay [1] (olfactory neurons), the “rise in intracellular cyclic AMP levels (in words)” value was “rapid, transient rise in intracellular cyclic AMP levels”. In addition, the “change of cyclic AMP levels (in words)” value in assay [2] (NG-108 cells, similar treatment) is “does not alter cyclic AMP levels”. For the same molecule, the EC50 in assay [3] (read-out: concentration stimulating to 50% of maximal adenylyl cyclase augmentation) worked out at 1 nM.
With collagen, in assay [4], the “plating efficiency (in words)” value is “somewhat better plating efficiency than poly-D-lysine, polyornithine or heparan-sulfate” and the “process / neurite outgrowth (in words)” value was “process outgrowth is still stunted”.
Regarding fibronectin, the “process / neurite outgrowth (in words)” value in assay [4] is listed as “processes are shorter”.
For the molecule `CC(C)CC(=O)O` [isovaleric acid], in assay [3] (setting [6]), the EC50 lay within 1000 to 10000 nM.
For laminin, in assay [4], the “plating efficiency (in words)” value is reported as “optimal plating efficiency” and the “process / neurite outgrowth (in words)” value was “cells extend neurites in a random fashion”. Also, the “aggregation of cells (in words)” value in assay [4] (duplicate suspensions, laminin vs matrigel, FIG. 7) was “no tendency to reaggregate”.
Regarding `CC(C)=CCCC(C)=CC#N` [citralva], the EC50 in assay [3] (setting [6]) lay within 1000 to 10000 nM.

B1: NGF: nerve growth factor (NGF, Collaborative Research) (protein, UniProt P01139 122-241, looked up)
Beta-nerve growth factor: SSTHPVFHMGEFSVCDSVSVWVGDKTTATDIKGKEVTVLAEVNINNSVFRQYFFETKCRASNPVESGCRGIDSKHWNSYCTTTHTFVKALTTDEKQAAWRFIRIDTACVCVLSRKATRRG
modifications: Beta-nerve growth factor
As for B1, the “survival and neurite extension (in words)” value in assay [5] (NGF 25 ng/ml) is “necessary for survival of olfactory neurons; also recorded: affects both olfactory neuronal survival and neurite extension in culture”. Also, the “process extension without NGF (in words)” value in assay [5] (by 3 days in culture, without NGF) was “lose process extension”. Besides, the “decrease of cell viability without NGF” value in assay [5] (by 3 days in culture, without vs with 25 ng/ml NGF) is listed as “approximately 85%”.
